These are literature values, as cited in US20100129448A1, “TOPICAL HYDROGEL COMPOSITION” (Nanotherapeutics, Inc., priority 2008, published 2010).

Molecules are shown by their SMILES.

For the molecule `C[C@H]1c2cccc(O)c2C(=O)C2=C(O)[C@]3(O)C(=O)C(C(N)=O)=C(O)[C@@H](N(C)C)[C@@H]3[C@@H](O)[C@@H]21` [Doxycycline Monohydrate], for the setting “pH greater than 6”, the aqueous solubility entry is given as “less than 0.8 mg/ml”.

In the case of `C[C@H]1c2cccc(O)c2C(=O)C2=C(O)[C@]3(O)C(=O)C(C(N)=O)=C(O)[C@@H](N(C)C)[C@@H]3[C@@H](O)[C@@H]21` [Doxycycline], the solubility result (neutral pH) is on record as “less than 10 mg/ml”.
